Read-outs that look alike come from different tables or passages of the source.
Legend:
[1] = target: hSERT WT (Homo sapiens, UniProt P31645)
[2] = target: NET (Rattus norvegicus, UniProt Q9WTR4); assay: Radioligand binding assay for NET, displacement of [3H]nisoxetine
[3] = target: SERT (Rattus norvegicus, UniProt P31652); assay: Radioligand binding assay for SERT, displacement of [3H]1; conditions: for Ki(NET)/Ki (SERT): selectivity ratio
[4] = 30 µM compound, 18°C, COS-7 membranes, hSERT WT
[5] = 30 µM compound, extrapolated from 24°C with the temperature factor of S-1

Sequence of hSERT WT (P31645 whole entry): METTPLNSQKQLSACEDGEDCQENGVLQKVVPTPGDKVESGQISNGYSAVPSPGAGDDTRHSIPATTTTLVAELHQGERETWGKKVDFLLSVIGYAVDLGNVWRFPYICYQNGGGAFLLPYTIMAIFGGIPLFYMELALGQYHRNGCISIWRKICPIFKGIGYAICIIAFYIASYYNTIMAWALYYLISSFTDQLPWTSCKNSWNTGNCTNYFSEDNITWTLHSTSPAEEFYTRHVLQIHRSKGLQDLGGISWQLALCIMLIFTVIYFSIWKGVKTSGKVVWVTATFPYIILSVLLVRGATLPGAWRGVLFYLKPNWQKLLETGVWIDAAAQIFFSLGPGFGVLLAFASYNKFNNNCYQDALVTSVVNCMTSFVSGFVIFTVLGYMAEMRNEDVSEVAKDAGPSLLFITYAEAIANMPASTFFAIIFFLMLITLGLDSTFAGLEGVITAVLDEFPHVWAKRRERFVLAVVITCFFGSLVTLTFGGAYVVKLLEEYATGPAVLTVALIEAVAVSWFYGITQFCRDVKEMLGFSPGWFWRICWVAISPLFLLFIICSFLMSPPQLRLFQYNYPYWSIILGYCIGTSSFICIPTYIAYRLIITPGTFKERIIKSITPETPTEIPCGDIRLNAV
Sequence of SERT (P31652 whole entry): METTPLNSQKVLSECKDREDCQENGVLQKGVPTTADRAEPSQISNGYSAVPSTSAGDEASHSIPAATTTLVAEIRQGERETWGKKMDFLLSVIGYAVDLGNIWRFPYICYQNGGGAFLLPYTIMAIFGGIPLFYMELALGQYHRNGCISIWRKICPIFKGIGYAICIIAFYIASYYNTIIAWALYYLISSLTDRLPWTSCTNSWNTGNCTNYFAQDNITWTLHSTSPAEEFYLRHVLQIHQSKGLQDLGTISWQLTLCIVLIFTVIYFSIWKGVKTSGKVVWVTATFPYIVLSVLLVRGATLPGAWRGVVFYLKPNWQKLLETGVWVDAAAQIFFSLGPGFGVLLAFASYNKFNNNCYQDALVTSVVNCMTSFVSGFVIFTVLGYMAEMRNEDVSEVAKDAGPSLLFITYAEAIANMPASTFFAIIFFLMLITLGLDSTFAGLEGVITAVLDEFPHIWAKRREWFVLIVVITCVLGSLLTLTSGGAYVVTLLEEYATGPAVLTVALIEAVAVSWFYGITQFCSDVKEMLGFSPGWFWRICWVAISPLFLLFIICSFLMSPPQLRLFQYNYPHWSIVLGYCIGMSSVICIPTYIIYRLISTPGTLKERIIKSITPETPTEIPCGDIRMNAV
Sequence of NET (Q9WTR4 1-597): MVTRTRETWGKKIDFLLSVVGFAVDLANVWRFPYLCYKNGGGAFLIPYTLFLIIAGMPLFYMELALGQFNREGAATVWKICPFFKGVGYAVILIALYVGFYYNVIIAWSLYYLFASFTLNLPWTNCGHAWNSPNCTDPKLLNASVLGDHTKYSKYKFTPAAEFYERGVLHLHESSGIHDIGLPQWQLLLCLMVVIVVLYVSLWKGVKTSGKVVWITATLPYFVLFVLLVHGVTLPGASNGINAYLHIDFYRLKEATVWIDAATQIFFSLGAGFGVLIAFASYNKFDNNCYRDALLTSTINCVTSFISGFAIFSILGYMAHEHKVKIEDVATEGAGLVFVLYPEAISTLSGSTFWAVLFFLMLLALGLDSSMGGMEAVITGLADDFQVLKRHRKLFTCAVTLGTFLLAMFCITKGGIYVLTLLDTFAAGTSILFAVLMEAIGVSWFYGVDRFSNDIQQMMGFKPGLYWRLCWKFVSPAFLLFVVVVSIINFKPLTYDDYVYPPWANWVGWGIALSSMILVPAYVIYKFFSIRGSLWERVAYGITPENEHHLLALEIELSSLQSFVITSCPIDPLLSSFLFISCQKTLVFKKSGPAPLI

In the case of `CN(C)CCCC1(c2ccc(F)cc2)OCc2cc(/C=C/c3ccccc3)ccc21` (single isomer, unassigned; (+)) [(+)62], the “24°C dissociation t½ calculated to a t½ at 18°C” value (from here on “24°C dissociation t½ calculated”) [1] is reported as 132.3 ± 8.5 min and the “[3H] S-1 dissoc. t½ (min) at 24°C” value ([1]; 30 µM compound, 24°C, COS-7 membranes, hSERT WT) is reported as 54.9 ± 3.5 min.

In the case of `CN(C)CCCC1(c2ccc(F)cc2)OCc2cc(/C=C/c3ccccc3)ccc21` (single isomer, unassigned; (-)) [(−)62], the “[3H] S-1 dissoc. t½ (min) at 18°C” value [1, 4] is reported as 37.3 ± 9.5 min.

For `CN(C)CCCC1(c2ccc(F)cc2)OCc2cc(CN)ccc21` (stereo not drawn) [Compound 5, 3-(5-(Aminomethyl)-1-(4-fluorophenyl)-1,3-dihydroisobenzofuran-1-yl)-N,N-dimethylpropan-1-amine], the “[3H] S-1 dissoc. t½ (min) at 18°C” value [1, 4] was 17.4 ± 0.8 min.

With `CN(C)CCCC1(c2ccc(F)cc2)OCc2cc(CN3CCN(c4ccccc4)CC3)ccc21` (stereo not drawn) [Compound 8, 3-(1-(4-Fluorophenyl)-5-((4-phenylpiperazin-1-yl)methyl)-1,3-dihydroisobenzofuran-1-yl)-N,N-dimethylpropan-1-amine] the “[3H] S-1 dissoc. t½ (min) at 18°C” value [1] was 16.4 ± 0.3 min.

`COc1ccccc1N1CCN(Cc2ccc3c(c2)COC3(CCCN(C)C)c2ccc(F)cc2)CC1` (stereo not drawn) [Compound 9, 3-(1-(4-Fluorophenyl)-5-((4-(2-methoxyphenyl)piperazin-1-yl)methyl)-1,3-dihydroisobenzofuran-1-yl)-N,N-dimethylpropan-1-amine] was tested, and the “[3H] S-1 dissoc. t½ (min) at 18°C” value [1, 4] was 16.3 ± 0.1 min.

With `CN(C)CCCC1(c2ccc(F)cc2)OCc2cc(CN3CCN(c4cccc(Cl)c4Cl)CC3)ccc21` (stereo not drawn) [Compound 10, 3-(5-((4-(2,3-Dichlorophenyl)piperazin-1-yl)methyl)-1-(4-fluorophenyl)-1,3-dihydroisobenzofuran-1-yl)-N,N-dimethylpropan-1-amine] the “[3H] S-1 dissoc. t½ (min) at 18°C” value [1, 4] was 24.8 ± 1.1 min.

For `CN(C)CCCC1(c2ccc(F)cc2)OCc2cc(CNCc3ccc4ccccc4c3)ccc21` (stereo not drawn) [Compound 13, 3-(1-(4-Fluorophenyl)-5-(((naphthalen-2-ylmethyl)amino)methyl)-1,3-dihydroisobenzofuran-1-yl)-N,N-dimethylpropan-1-amine], the “[3H] S-1 dissoc. t½ (min) at 18°C” value [1] was 22.1 ± 1.5 min.

`CN(C)CCCC1(c2ccc(F)cc2)OCc2cc(CNCc3ccc4c(c3)Cc3ccccc3-4)ccc21` (stereo not drawn) [Compound 14, 3-(5-((((9H-Fluoren-2-yl)methyl)amino)methyl)-1-(4-fluorophenyl)-1,3-dihydroisobenzofuran-1-yl)-N,N-dimethylpropan-1-amine] was tested, and the “[3H] S-1 dissoc. t½ (min) at 18°C” value [1] was 11.4 ± 0.2 min.

With `CN(C)CCCC1(c2ccc(F)cc2)OCc2cc(CNCc3ccc4c(c3)COC4(CCCN(C)C)c3ccc(F)cc3)ccc21` (stereo not drawn) [Compound 15, 3-(5-((((1-(3-(Dimethylamino)propyl)-1-(4-fluorophenyl)-1,3-dihydroisobenzofuran-5-yl)methyl)amino)methyl)-1-(4-fluorophenyl)-1,3-dihydroisobenzofuran-1-yl)-N,N-dimethylpropan-1-amine] the “[3H] S-1 dissoc. t½ (min) at 18°C” value [1, 4] was 21.4 ± 0.3 min.

With `CN(C)CCCC1(c2ccc(F)cc2)OCc2cc(Br)ccc21` (stereo not drawn) [Compound 17] the Ki [2] was 28400 nM and the “Ki(NET)/Ki (SERT)” value ([3]; Table 1) was >10,000.

In the case of `CN(C)CCCC1(c2ccc(F)cc2)OCc2cc(-c3ccc([N+](=O)[O-])cc3)ccc21` (stereo not drawn) [Compound 19, 3-(1-(4-Fluorophenyl)-5-(4-nitrophenyl)-1,3-dihydroisobenzofuran-1-yl)-N,N-dimethylpropan-1-amine], the “[3H] S-1 dissoc. t½ (min) at 24°C” value [1] is reported as 40.2 ± 7.0 min and the “24°C dissociation t½ calculated” value [1, 5] is reported as 97 ± 17 min.

`CN(C)CCCC1(c2ccc(F)cc2)OCc2cc(/C=C/Cc3ccccc3)ccc21` (stereo not drawn) [Compound 21, (E)-3-(1-(4-Fluorophenyl)-5-(3-phenylprop-1-en-1-yl)-1,3-dihydroisobenzofuran-1-yl)-N,N-dimethylpropan-1-amine] was tested, and the “[3H] S-1 dissoc. t½ (min) at 18°C” value [1] was 23.1 ± 2.9 min.

For `CN(C)CCCC1(c2ccc(F)cc2)OCc2c(I)cccc21` (stereo not drawn) [Compound 22, 3-(1-(4-Fluorophenyl)-4-iodo-1,3-dihydroisobenzofuran-1-yl)-N,N-dimethylpropan-1-amine], the “[3H] S-1 dissoc. t½ (min) at 18°C” value [1] was 33.2 ± 5.8 min.

For `CN(C)CCCC(O)(c1ccc(Br)cc1)c1ccc(C#N)cc1CO` (stereo not drawn) [Compound 24, 4-(1-(4-Bromophenyl)-4-(dimethylamino)-1-hydroxybutyl)-3-(hydroxymethyl)benzonitrile], the “[3H] S-1 dissoc. t½ (min) at 18°C” value [1, 4] was 24.7 ± 5.4 min.

In the case of `CNCCCC1(c2ccc(F)cc2)OCc2cc(C#N)ccc21` (stereo not drawn) [Compound 38, 1-(4-Fluorophenyl)-1-(3-(methylamino)propyl)-1,3-dihydroisobenzofuran-5-carbonitrile], the Ki [2] is reported as 880 ± 12.4 nM, the Ki [3] is reported as 5.04 ± 0.176 nM and the “Ki(NET)/Ki (SERT)” value ([3]; Table 3) is reported as 174.6.

In the case of `CN(CCCC1(c2ccc(F)cc2)OCc2cc(C#N)ccc21)CCc1ccccc1` (stereo not drawn) [Compound 42, 1-(4-Fluorophenyl)-1-(3-(methyl(phenethyl)amino)propyl)-1,3-dihydroisobenzofuran-5-carbonitrile], the “[3H] S-1 dissoc. t½ (min) at 24°C” value [1] is reported as 45.4 ± 5.9 min and the “24°C dissociation t½ calculated” value [1, 5] is reported as 110 ± 14 min.

`CN(CCCC1(c2ccc(F)cc2)OCc2cc(C#N)ccc21)Cc1csc2ccccc12` (stereo not drawn) [Compound 45, 1-(3-((Benzo[b]thiophen-3-yl-methyl)(methyl)amino)propyl)-1-(4-fluorophenyl)-1,3-dihydroisobenzofuran-5-carbonitrile] was tested, and the “[3H] S-1 dissoc. t½ (min) at 18°C” value [1, 4] was 59.6 ± 1.0 min.

With `CN(CCCC1(c2ccc(F)cc2)OCc2cc(C#N)ccc21)Cc1ccc(N(C)C)cc1` (stereo not drawn) [Compound 46, 1-(3-((4-(Dimethylamino)benzyl)(methyl)amino)propyl)-1-(4-fluorophenyl)-1,3-dihydroisobenzofuran-5-carbonitrile] the “[3H] S-1 dissoc. t½ (min) at 18°C” value [1] was 41.2 ± 2.8 min.

For `CN(CCCC1(c2ccc(F)cc2)OCc2cc(C#N)ccc21)Cc1ccnc2ccccc12` (stereo not drawn) [Compound 48, 1-(4-Fluorophenyl)-1-(3-(methyl(quinolin-4-ylmethyl)amino)propyl)-1,3-dihydroisobenzofuran-5-carbonitrile], the “[3H] S-1 dissoc. t½ (min) at 18°C” value [1, 4] was 29.0 ± 1.3 min.

`CN(CCCC1(c2ccc(F)cc2)OCc2cc(C#N)ccc21)Cc1ccc2ccccc2c1` (stereo not drawn) [Compound 49, 1-(4-Fluorophenyl)-1-(3-(methyl(naphthalen-2-ylmethyl)amino)propyl)-1,3-dihydroisobenzofuran-5-carbonitrile] was tested, and the “[3H] S-1 dissoc. t½ (min) at 18°C” value [1] was 60.1 ± 1.0 min.

With `CN(CCCC1(c2ccc(F)cc2)OCc2cc(C#N)ccc21)Cc1ccc2c(c1)Cc1ccccc1-2` (stereo not drawn) [Compound 50, 1-(3-(((9H-Fluoren-2-yl)methyl)(methyl)amino)propyl)-1-(4-fluorophenyl)-1,3-dihydroisobenzofuran-5-carbonitrile] the “Ki(NET)/Ki (SERT)” value ([3]; Table 3) was greater than 100.

For `CN(CCCC1(c2ccc(F)cc2)OCc2cc(C#N)ccc21)C1CC=C(c2c[nH]c3ccccc23)CC1` (stereo not drawn) [Compound 60, 1-(3-((4-(1H-Indol-3-yl)cyclohex-3-en-1-yl)(methyl)amino)propyl)-1-(4-fluorophenyl)-1,3-dihydroisobenzofuran-5-carbonitrile], the “[3H] S-1 dissoc. t½ (min) at 18°C” value [1] was 52.0 ± 7.6 min.

`CN(C)CCCC1(c2ccc(F)cc2)OCc2cc(-c3cccc(N)c3)ccc21` (stereo not drawn) [Compound 61] was tested, and the “[3H] S-1 dissoc. t½ (min) at 18°C” value [1, 4] was 43.1 ± 6.2 min.

For `CN(C)CCCC1(c2ccc(F)cc2)OCc2cc(I)ccc21` (stereo not drawn) [Compound 63], the “[3H] S-1 dissoc. t½ (min) at 18°C” value [1, 4] was 34.4 ± 6.6 min.

From article PMC3894853 (Journal of medicinal chemistry, 2013)
